{"source": "patent US6620397B2", "about": "“Material and method for treating photographic effluents” (Eastman Kodak Company, priority 2001, dated 2003)", "assay": "Oxidation of cyclohexene to cyclohexanol followed by FT Raman spectroscopy", "protocol": "When no imogolite was present in the test the volume of imogolite was replaced by an equivalent volume of water so as to retain a constant volume. The oxidation of the cyclohexene was followed by FT (Fourier transform) Raman spectroscopy by measuring the percentage of cyclohexene converted to cyclohexanol after 48 hours. The tests were carried out at ambient temperature.", "data": [{"smiles": "OO", "note": "[Example 13, hydrogen peroxide]", "values": [{"measurement": "Cyclohexene oxidized after 48 h (%)", "setting": "5 g material, 20 ml cyclohexene in 80 ml methanol, ambient temperature, 48 hours", "result": 3, "unit": "%"}, {"measurement": "Oxidizing property towards cyclohexene (in words)", "setting": "summary of Table I", "result": "weak oxidizing agent"}]}]}
